What was measured:
H2R = H2R (Homo sapiens, UniProt P25021); settings: thioether group replaced by an ether; cited from earlier work
[1] = test system: NK cells and CD8+ T cells co-cultured with CD14+ CMML cells; experiment: CMML cell-induced lymphocyte cell death, overnight co-culture; assay type: cell-based, human; settings: DPI 3 μM; for CMML-induced lymphocyte apoptosis / cell death: NK cells and CD8+ T cells, HDC 100 μM, catalase 200U/ml, PJ34 0.5 μM
Description: (§1) Lymphocyte cell death. Isolated lymphocyte subsets were co-cultured overnight with primary leukemic monocytes from CMML patients with or without NOX2 inhibitors or other anti-oxidative compounds at 37° C. in 5% CO2. Lymphocyte cell death was assessed by flow cytometry after staining with a LIVE/DEAD® fixable dead cell stain (Life Technologies). In receptor expression assays, purified NK cells where co-cultured overnight with monocytes in the presence or absence of the PARP-1 inhibitor PJ34 ([…]). The following antibodies were used for receptor expression assessment: NKp46-PE (clone: 9E2) and DNAM-1-PE-Cy7 (clone: DX11) from Miltenyi Biotec. NKp80-APC (clone: 4A4.D10) and CD16-BV605 (clone: 3G8) from BD Pharmingen.
Subsets of CD8+ T cells were stained and sorted on a 3-laser […] II flow cytometer (BD Biosciences). The following antibodies were used to distinguish the T cell populations: CD3-Pacific Blue (clone: S4.1) from Life technologies. CD8-APC-H7 (clone: SK1), CD45RA-APC (clone: HI100), CD45RO-PE (clone: UCHL1) and CCR7-PE-Cy7 (clone: G043H7) all from BD Pharmingen. CD8+ T cell subsets were further defined as follows: naive T cells (TN) as CD45RA CCR7+, T central memory cells (TCM) as CD45ROCCR7+, T effector memory cells (TEM) as CD45ROCCR7^− and T effector cells (TEff) as CD45RACCR7^−.

CD14+ CMML cells [2] = experiment: Extracellular ROS production by isoluminol-enhanced chemiluminescence; assay type: cell-based, human; settings: FACS-sorted CD14+ CMML cells stimulated with fMLF; HDC 50 or 100 μM
Description: ROS production. The extracellular ROS production of primary CMML cells was measured by isoluminol-enhanced chemiluminescence as described. In brief, 2×10^5 cells were added to 96-well plates in the presence of isoluminol (10 μg/ml) and horseradish peroxidase (HRP; 4U/ml) and stimulated by the NOX2 inducer N-formyl-methionyl-leucyl-phenylalanine (fMLF; 0.1 μM). Light emission was recorded using a FLUOstar Omega platereader (BMG Labtech).

CD14+ CMML cells [3] = experiment: NK cell degranulation against primary CMML cells; assay type: cell-based, human; settings: IL-2-stimulated NK cells; lintuzumab 1 μg/ml; HDC 100 μM added to lintuzumab
Description: Assays of NK cell degranulation and ADCC. NK cell degranulation and cytotoxicity against patient-derived, malignant monocytes were assessed in experiments using lintuzumab (Abbvie, Stockholm, Sweden), a humanized anti-CD33 antibody. NK cells from healthy donors were co-incubated with monocytes, labeled with CellTrace violet stain (Life Technologies), in the presence of anti-CD107a-PE-Cy7 antibody (BD Pharmingen) and anti-oxidative compounds for four hours at 37° C. and 5% CO2. Thereafter, the cells were stained with LIVE/DEAD® fixable dead cell stain (Life Technologies) and assessed for lysis of monocytes and NK cell degranulation by flow cytometry. For culture experiments, cytotoxicity assays and confocal microscopy, Iscoves' modified Dulbecco minimum essential medium (IDMEM) supplemented with 10% human AB+ serum was used.

EL-4 thymoma cell line = experiment: EL-4 thymoma tumor growth in mice; assay type: in vivo, mouse; settings: EL-4-bearing C57BL/6J mice; 1.5 mg histamine dihydrochloride i.p. three times per week; 240 μg each antibody i.p. days 3, 6 and 10
Description: The EL-4 thymoma cell line (provided by Dr. Ingo Schmitz, Otto-von-Guericke-University, Magdeburg, Germany) was cultured in DMEM medium (Sigma, Stockholm, Sweden) supplemented with 10% fetal calf serum, 100 U/ml penicillin, 100 μg/ml streptomycin and 2 mM L-glutamine, as described in […]. et al. The Journal of Immunology, volume 194, no. 10, pp. 5014-5021. C57BL/6J mice (6-8 weeks old, purchased from Charles River Laboratories, Sulzfeld, Germany) were inoculated subcutaneously with 1.75-2×10^5 EL-4 tumor cells and treated with saline (control) or 1.5 mg histamine dihydrochloride (purchased from Sigma-Aldrich, Stockholm, Sweden) diluted in saline, by intraperitoneal injections three times per week starting one day before inoculation of cells. Two-hundred forty μg of an antibody against the programmed cell death-1 receptor (anti-mouse PD1, clone RMP1-14, referred to as a-PD1) and 240 μg of an antibody against the programmed death-ligand 1 (anti-mouse PD-L1, clone 10F.9G2, referred to as α-PDL1) (both purchased from BioXcell, West Lebanon, N.H., USA, catalogue numbers BE0146 and BE0101, respectively) were administrated by intraperitoneal injections three, six and ten days after tumor inoculation. Tumors were measured manually every 2-3 days. Tumor size was calculated as length× width.

NK cells = experiment: NK cell receptor expression after exposure to PJ34; assay type: cell-based, human; settings: PJ34 in the absence of ROS-producing cells
Description: as §1

Sequence of H2R (P25021 whole entry, species assumed): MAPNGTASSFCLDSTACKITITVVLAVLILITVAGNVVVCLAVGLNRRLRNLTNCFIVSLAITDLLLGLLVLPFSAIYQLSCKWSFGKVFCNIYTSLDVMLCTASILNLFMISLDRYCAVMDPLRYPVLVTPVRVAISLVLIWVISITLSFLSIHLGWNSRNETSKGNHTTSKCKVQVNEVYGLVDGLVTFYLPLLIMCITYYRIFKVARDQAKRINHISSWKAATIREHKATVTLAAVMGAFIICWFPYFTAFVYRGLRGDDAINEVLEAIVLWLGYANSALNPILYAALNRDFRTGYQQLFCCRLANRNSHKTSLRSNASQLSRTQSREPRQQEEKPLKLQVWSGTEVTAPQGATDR

| Compound | CMML-induced lymphocyte apoptosis / cell death [1] | NK cell degranulation response (CD14+ CMML cells [3]) | further results |
| --- | --- | --- | --- |
| CNC(=C[N+](=O)[O-])NCCOCc1ccc(CN(C)C)o1 [AH202399AA] | – | – | reduction of affinity at H2R relative to ranitidine (H2R): > 50 fold |
| c1ccc2c(c1)[I+]c1ccccc1-2 [DPI, diphenylene iodonium chloride] | prevented | – | CMML cell-induced apoptosis of sorted CD8+ T cell subsets (TN, TCM, TEM, Teff) ([1]; ratio 1:1, overnight): efficiently rescued all T cell subsets |
| Cl.Cl.NCCc1c[nH]cn1 [HDC, histamine dihydrochloride] | prevented | further enhanced | ROS production (CD14+ CMML cells [2]): significantly suppressed; tumor growth (EL-4 thymoma cell line): significantly reduced tumor growth rate |
| CN(C)CC(=O)Nc1ccc2[nH]c(=O)c3ccccc3c2c1 [PJ34] | rescued | – | NK cell receptor expression (NK cells): No down-regulation |
| catalase | prevented | – | – |
| lintuzumab: a humanized anti-CD33 antibody | – | significantly augmented | – |

Source: US20210292417A1, “HISTAMINE DIHYDROCHLORIDE COMBINATIONS AND USES THEREOF” (Immune Pharmaceuticals LTD., priority 2016, published 2021)
